The values below come from patent US9440972B2, “Pyrido[2,3-d]pyrimidine-2,4(1 H,3H)-dione derivatives” (Hydra Biosciences, Inc., priority 2014, dated 2016).

Assay [1] concerns the target T1, TRPC5 channel (Homo sapiens, UniProt Q9UL62).
T1 construct: expressed in transfected cells; host or cells: HEK293/TREx (Invitrogen), tetracycline-induced
T1 sequence (Q9UL62 1-973): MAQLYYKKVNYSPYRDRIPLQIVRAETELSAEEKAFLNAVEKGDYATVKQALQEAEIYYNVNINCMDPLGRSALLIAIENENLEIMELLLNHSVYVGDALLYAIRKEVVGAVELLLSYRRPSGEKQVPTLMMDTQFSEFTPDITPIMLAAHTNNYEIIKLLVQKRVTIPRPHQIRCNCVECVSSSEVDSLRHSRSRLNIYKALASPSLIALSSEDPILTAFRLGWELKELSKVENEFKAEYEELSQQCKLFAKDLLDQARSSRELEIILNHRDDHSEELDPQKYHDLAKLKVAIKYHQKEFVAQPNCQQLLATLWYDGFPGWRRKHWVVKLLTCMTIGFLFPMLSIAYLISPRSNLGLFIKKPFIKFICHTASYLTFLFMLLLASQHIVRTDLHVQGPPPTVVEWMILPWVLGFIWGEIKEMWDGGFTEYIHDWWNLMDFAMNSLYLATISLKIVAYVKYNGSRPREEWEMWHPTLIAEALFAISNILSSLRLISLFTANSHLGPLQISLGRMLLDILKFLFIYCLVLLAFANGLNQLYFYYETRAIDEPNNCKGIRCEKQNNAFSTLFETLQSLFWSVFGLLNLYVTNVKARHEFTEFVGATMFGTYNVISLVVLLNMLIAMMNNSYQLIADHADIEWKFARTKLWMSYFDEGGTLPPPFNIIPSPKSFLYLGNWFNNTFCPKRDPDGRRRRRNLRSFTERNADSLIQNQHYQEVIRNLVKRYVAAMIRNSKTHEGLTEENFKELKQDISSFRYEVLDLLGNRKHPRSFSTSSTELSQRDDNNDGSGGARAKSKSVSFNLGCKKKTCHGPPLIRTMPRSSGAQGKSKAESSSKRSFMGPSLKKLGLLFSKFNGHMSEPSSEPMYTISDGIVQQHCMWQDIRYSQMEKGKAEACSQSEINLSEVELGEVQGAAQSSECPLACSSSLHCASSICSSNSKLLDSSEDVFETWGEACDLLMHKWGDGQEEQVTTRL
The experiment in a line: Patch clamp experiments (whole-cell, LaCl3-activated TRPC5 current). Type of assay: cell-based. The note with it: whole-cell patch clamp in TRPC5-expressing HEK293 TREx cells; block of inward and outward currents in continued presence of LaCl3; IC50 estimated. From the text:
Patch clamp experiments permit the detection of currents through the TRPC5 channel in the cell line described above. In normal whole-cell patch clamp recordings, a glass electrode is brought into contact with a single cell and a high-resistance (gigaohm) seal is established with the cell membrane. The membrane is then ruptured to achieve the whole-cell configuration, permitting control of the voltage of the cell membrane and measurement of currents flowing across the membrane using the amplifier attached to the electrode and resulting in the replacement of cytoplasm with the pipette solution. A perfusion system permits control of the extracellular solution, including the addition of blockers and activators of the current. The current can be activated by including 1.4 μM free Ca^2+ in the pipette (intracellular) solution, and 80 μM LaCl3 in the extracellular solution.
TRPC5 cells were induced 20-48 hours, removed from growth plates, and replated at low density (to attain good single-cell physical separation) on glass coverslips for measurement. In some cases, cells were grown in low density overnight on glass coverslips. Patch clamp recordings were made in the whole-cell mode with a holding potential of −40 mV. Every 5 seconds, a voltage ramp was applied from −120 to +100 mV, 400 ms in duration. Currents elicited were quantified at −80 mV and +80 mV. The internal solution consisted of 140 mM cesium aspartate, 10 mM HEDTA, 2 mM CaCl2, 2.27 mM MgCl2 and 10 mM HEPES, pH 7.2, with 1,400 nM calculated free Ca^2+. The external solution consisted of 150 mM NaCl, 4.5 mM KCl, 1 mM MgCl2, 2 mM CaCl2, 10 mM HEPES, 10 mM glucose, 1 mM EGTA, pH 7.4. Upon addition of LaCl3, TRPC5 current was induced only in TRPC5-expressing cells and not in parental HEK293 TREx cells. Removal of the LaCl3 stimulus causes most of the current to go away. Potential blockers were tested for ability to block both inward and outward currents in the continued presence of LaCl3.
IC50 of a compound of Formula (I) was estimated by testing the compound at 5 μM and 500 nM. […] IC50 for a compound of Formula (I) between 500 nM and 5 μM was similarly estimated.

Assay [2] deals with T1, TRPC5 channel. The experiment in a line: High throughput screening assay: Fluo4 cell-based fluorescence assay of intracellular Ca2+ rise. The note with it: HEK293/TREx cells inducibly expressing TRPC5, 0.027-20 μM in triplicate, NF = no IC50 curve could be fit. The text has this: The assay depended on detection of the rise in intracellular Ca2+ concentration ([Ca2+]i) following channel activation in cells inducibly expressing the TRPC5 channel. Ca2+ rise was quantified with the use of fluorescent Ca2+ indicators that were loaded into cells and thereafter indicated the [Ca2+]i Ca2+ influx followed activation of the TRPC5 channel. Compounds inhibiting the [Ca2+]i rise were considered hits for further investigation.
The commercially available HEK293/TREx line (Invitrogen) was stably transfected with a TRPC5 construct and screened by conventional calcium imaging to find clones with TRPC5 expression following stimulation with 1 μg/ml tetracycline. These cells were maintained in the growth medium recommended by the manufacturer supplemented with 100 μg/ml hygromycin to promote retention of the TRPC5 construct. After growing to near confluency, cells were plated at a density of ˜35,000 cells/well in 384 well CellBind plates (Corning) in the presence of 1 μg/ml tetracycline, and allowed to grow for 20-30 hrs. A nearly confluent monolayer resulted. Cells were then loaded with Ca2+ dye: Fura-2/AM or Fluo4/AM was added to the wells to a final concentration of 4 μM or 0.5 μM, respectively, and incubated for 80 min or 60 min, respectively, at room temperature. Supernatant was then removed from the cells by inverting plates with a sharp flick, and 25 μl Hank's Balanced Salt Solution (HBSS; 0.185 g/l D-glucose, 0.9767 g/l MgS04 (anhydrous), 0.4 g/l KCl, 0.06 g/l KH2PO4 (anhydrous), 0.35 g/l NaHCO3, 8.0 g/l NaCl, and 0.04788 g/l Na2HPO4 (anhydrous); pH 7.4) was then added to each well. Following ˜0.5 hour for recovery from loading, cells were assayed using the Hamamatsu FDSS 6000 system, which permitted illumination alternately at 340 nm and 380 nm for Fura-2 experiments, or at 485 nm for Fluo4 experiments. Frames were acquired at a rate of 0.2 Hz. During the assay, the plates were continuously vortexed, with pipette mixing of wells following addition of each reagent. For the screening assay, 26 μl of a diluted compound stock (at 50 μM) was added to each well for 2 minutes following the collection of a short (4 frame) baseline. 13 μl 62 mM high-Ca2+Ringer solution (4.17 ml of normal ringer (with 2 mM Ca2+) plus 5.83 ml of isotonic calcium ringer (105 mM Ca2+; in this ringer all sodium has been replaced with calcium)) was then added to each well, achieving a final concentration of 14 mM Ca2+ and 10 μM test compound. Data was collected for ˜3 minutes following addition of high Ca2+Ringer, where the fluorescent intensity (for Fluo4) and the F340/F380 ratio (for Fura-2) were proportional to the [Ca2+]i Negative controls consisted of HEK293/TREx TRPC5 cells exposed to high Ca2+ solution, but no compound. Positive control conditions consisted of addition of 2-APB, a promiscuous blocker of TRPC5 and other channels, to columns 23 and 24 of the plates, to a final concentration of 200 μM. These controls defined a screening window, and “hits” were defined as those compounds inhibiting the fluorescence response by at least 40%. IC50 values were determined for compounds defined as “hits.” The Fluo4 cell-based fluorescence assay was used to determine the intracellular Ca2+ concentration in the presence of varying drug concentration. Final concentrations of compounds tested were 20 μM, 6.667 μM, 2.222 μM, 0.741 μM, 0.247 μM, 0.082 μM, and 0.027 μM. Compounds were tested in triplicate at all concentrations. Standard software was used to fit IC50 curves. A value of NF was assigned when no IC50 curves could not be fit.
Additionally or alternatively, efficacy can be represented as % inhibition in the presence (of a given concentration of compound) versus the absence of compound or in comparison to a control compound. For example, efficacy can be represented as % inhibition of ion flux in the presence versus the absence of compound.

Molecules are shown by their SMILES.

In the case of `Cn1c(=O)n(CCCO)c(=O)c2c(Cc3ccc(Cl)cc3)c(Oc3cccc(OC(F)(F)F)c3)cnc21` [Compound 21, 5-(4-chlorobenzyl)-3-(3-hydroxypropyl)-1-methyl-6-(3-(trifluoromethoxy)phenoxy)pyrido[2,3-d]pyrimidine-2,4(1H,3H)-dione], the values for the IC50 in assay [1] and in assay [2] were less than 0.001 µM and 0.269 µM, respectively. On to `CC(C)CCc1c(-c2ccccc2C(C)C)cnc2c1c(=O)n(CCCO)c(=O)n2C` [Compound 23, 3-(3-hydroxypropyl)-5-isopentyl-6-(2-isopropylphenyl)-1-methylpyrido[2,3-d]pyrimidine-2,4(1H,3H)-dione], for which the IC50 was 0.0122 µM in assay [1] and 6.49 µM in assay [2]. For the compound `Cc1cncc(Oc2cnc3c(c2Cc2ccc(Cl)cc2)c(=O)n(CCCO)c(=O)n3C)c1` [Compound 27, 5-(4-chlorobenzyl)-3-(3-hydroxypropyl)-1-methyl-6-(5-methylpyridin-3-yloxy)pyrido[2,3-d]pyrimidine-2,4(1H,3H)-dione], in assay [1], the half-maximal inhibitory concentration (IC50) is 0.029 µM. `CC(C)Oc1cnc2c(c1Cc1ccccc1)c(=O)n(CCCO)c(=O)n2C` [Compound 29, 5-benzyl-3-(3-hydroxypropyl)-6-isopropoxy-1-methylpyrido[2,3-d]pyrimidine-2,4(1H,3H)-dione]: the figures for the IC50 in assay [1] and in assay [2] were 0.0045 µM and 0.027 µM, respectively. In the same order, the values of `Cn1c(=O)n(CCCO)c(=O)c2c(Cc3ccc(F)cc3)c(Oc3ccc(Cl)cc3)cnc21` [Compound 30, 6-(4-chlorophenoxy)-5-(4-fluorobenzyl)-3-(3-hydroxypropyl)-1-methylpyrido[2,3-d]pyrimidine-2,4(1H,3H)-dione] are less than 0.001 µM and 0.357 µM.

Regarding `CC(C)Oc1cnc2c(c1Cc1ccc(F)cc1)c(=O)n(CCCO)c(=O)n2C` [Compound 31, 5-(4-fluorobenzyl)-3-(3-hydroxypropyl)-6-isopropoxy-1-methylpyrido[2,3-d]pyrimidine-2,4(1H,3H)-dione], the results for the IC50 in assay [1] and in assay [2] were 0.00147 µM and 0.027 µM, respectively. In the same order, the values of `Cn1c(=O)n(CCCO)c(=O)c2c(Cc3ccccc3)c(-c3cccc(F)c3)cnc21` [Compound 34, 5-benzyl-6-(3-fluorophenyl)-3-(3-hydroxypropyl)-1-methylpyrido[2,3-d]pyrimidine-2,4(1H,3H)-dione] are 0.0083 µM and 0.154 µM.

As to `Cn1c(=O)n(CCCO)c(=O)c2c(Cc3ccc(Cl)cn3)c(-c3cccc(OC(F)(F)F)c3)cnc21` [Compound 35, 5-((5-chloropyridin-2-yl)methyl)-3-(3-hydroxypropyl)-1-methyl-6-(3-(trifluoromethoxy)phenyl)pyrido[2,3-d]pyrimidine-2,4(1H,3H)-dione], the IC50 was 0.0034 µM in assay [1] and 0.014 µM in assay [2]. Taken in the same sequence, the figures for `CC(C)Oc1cnc2c(c1Cc1ccc(Cl)cc1)c(=O)n(CCCO)c(=O)n2C` [Compound 36, 5-(4-chlorobenzyl)-3-(3-hydroxypropyl)-6-isopropoxy-1-methylpyrido[2,3-d]pyrimidine-2,4(1H,3H)-dione] were 0.0012 µM and 0.027 µM.

In the case of `Cn1c(=O)n(CCCO)c(=O)c2c(C(O)c3ccc(Cl)cc3)c(-c3cccc(OC(F)(F)F)c3)cnc21` (stereo not shown) [Compound 39, 5-((4-chlorophenyl)(hydroxyl)methyl)-3-(3-hydroxypropyl)-1-methyl-6-(3-(trifluoromethoxy)phenyl)pyrido[2,3-d]pyrimidine-2,4(1H,3H)-dione], the IC50 in assay [1] was 0.0517 µM.

Consider `Cn1c(=O)n(CCCO)c(=O)c2c(Cc3ccc(Cl)cc3)c(-c3cccc(OC(F)(F)F)c3)cnc21` [Compound 40, 5-(4-chlorobenzyl)-3-(3-hydroxypropyl)-1-methyl-6-(3-(trifluoromethoxy)phenyl)pyrido[2,3-d]pyrimidine-2,4(1H,3H)-dione], for which the IC50 in assay [1] is 0.0029 µM.
